Reference: US20230009366A1, “Using Alternating Electric Fields at Different Frequencies to Increase Permeability of the Blood Brain Barrier and also to Provide Other Benefits” (Novocure GmbH, priority 2021, published 2023)

Legend:
U87-MG cells [1] = assay: 5-ALA uptake (PpIX fluorescence), single culture; type: cell-based, human
Protocol: Experiments were performed to determine the effects of TTFields on uptake of 5-ALA (as measured by PpIX accumulation and its resultant fluorescence) in glioblastoma cells. Because it is difficult to distinguish the margin between tumor and normal cells using the present 5-ALA bioassay, the measurement of PpIX fluorescence was used to address this issue. Investigations were run to determine whether permeation of 5-ALA through the cellular membrane and into the glioblastoma cells could be increased with TTFields exposure. U87-MG cells were exposed or unexposed to TTFields, each for durations of 6-24 h.
To generate the data depicted in FIG. 18A, protoporphyrin IX (PpIX) fluorescence panels were obtained for TTFields-unexposed vs. TTFields-exposed U87-MG cells after 6 and 24 h of exposure. […] All monovariant statistical comparisons between no TTFields vs. TTFields samples done by Student's t-test for n=3 experiments per time point.

[2] = system: U87-MG cells on PCS-201 fibroblasts; assay: 5-ALA uptake (PpIX fluorescence), glioblastoma-fibroblast co-culture; type: cell-based, human
Protocol: During glioblastoma resection in patients, 5-ALA is used to aid neurosurgeons in delineating between the tumors and surrounding normal brain tissue. Likewise, to distinguish differences in 5-ALA uptake between glioblastoma and normal cells, a co-culture was developed where U87-MG cells were seeded in the center of a bed of PCS-201 fibroblasts and were subjected to TTFields or to no TTFields. Fluorescent and brightfield photomicrographs confirmed the presence of discrete glioblastoma vs. fibroblast cell regions in the co-culture set-up.
In particular, without TTFields exposure, the GBM cells formed many pockets of adherent neurospheres as was previously reported. […] To generate the data depicted in FIG. 18B, fluorescent panels of 5-ALA uptake (and subsequent PpIX fluorescence, Ex=558 nm, Em=583 nm) for no TTFields and TTFields were obtained. Duration of exposures are 2, 6, and 24 h. Quantification of time course of PpIX accumulation (and thus accumulation of fluorescent flux as expressed as photons/s) in the glioblastoma-fibroblast co-culture platform under TTFields exposed vs. unexposed conditions (p<0.001). Statistical analyses consisted of two-way ANOVA for no TTFields vs. TTFields conditions, and n=3 experiments per time point.

U87-MG/eGFP-fLuc cells [3] = assay: Reversibility of TTFields-induced uptake; type: cell-based, human; conditions: TTFields 24 h vs none vs TTFields 24 h followed by no TTFields 24 h
Protocol: To assess the reversibility of the effect of TTFields on cancer cells, U87-MG/eGFP-fLuc cells were subjected to three conditions: (1) No TTFields exposure, standard cell culture conditions (37° C., […], 5% CO2), (2) TTFields exposure for 24 h and (3) TTFields exposure for 24 h followed by no TTFields exposure for 24 h. The readouts of BLI, PpIX fluorescence (5-ALA product) and Dextran-FITC (4 kDa) fluorescence were acquired. All experimental conditions were done in triplicate. […] Here, NS=not significant; BLI=bioluminescent imaging; eGFP=enhanced green fluorescence protein; fLuc=firefly luciferase; 5-ALA=5 aminolevulinic acid; FITC=fluorescein isothiocyanate; PpIX=protoporphyrin IX; and FL=fluorescence.
In vitro tumor treating field apparatus: The coverslips were transferred to a ceramic dish of the Inovitro™ system, which in turn was mounted onto Inovitro™ base plates (Novocure Ltd., Haifa, Israel). Tumor treating fields at 200 kHz (1-4 V/cm) were applied through an Inovitro™ power generator. Incubator ambient temperatures spanned 20-27° C. with a target temperature of 37° C. in the ceramic dishes upon application of the TTFields. Duration of TTFields exposure lasted anywhere from 0.5 to 72 h, after which coverslips were removed and processed for the appropriate bioassays (see below). […]

U87-MG cells [4] = assay: 7-AAD accumulation by flow cytometry; type: cell-based, human; conditions: 300 kHz, 1.62 V/cm RMS, 24 h; only sample incubated with 7-AAD while subjected to field
Protocol: FIG. 21D depicts the results of an experiment to test how quickly the permeability drops back down after cessation of the alternating electric fields. More specifically, 7-Aminoactinomycin D (7-AAD) is a fluorescent chemical compound with a strong affinity for DNA. […] In this experiment, the cells were treated with an alternating electric field at 300 kHz with a field strength of 1.62 V/cm RMS for 24 hours, at an ambient temperature of 18° C. 7-AAD was introduced into samples at five different times: 15 minutes prior to the cessation of the alternating electric field; immediately after cessation of the alternating electric field; and 15, 30, and 60 minutes after cessation of the alternating electric field. In each case, the cells were incubated with 7-AAD for 30 minutes after introduction of the 7-AAD, followed by flow cytometry analysis of the percentage of cells with increased accumulation of the fluorescent 7-AAD for each of the different timings.
In this experiment, the cells were treated with an alternating electric field at different frequencies with a field strength of 1.62 V/cm RMS for a total of 24 hours, at an ambient temperature of 18° C. and a dish temperature of 37° C. After the first 23.75 hours, 7-AAD was added to the culture and incubated for 15 minutes during which time the alternating electric fields was continued (to complete the 24 hour period). […]

[5] = system: MDA-MB-435 human melanoma cell line cells; assay: 7-AAD accumulation by flow cytometry; type: cell-based
Protocol: FIG. 22A depicts the results of an experiment performed to determine how alternating electric fields affect the permeability of the cell membranes of MDA-MB-435 human melanoma cell line cells. In this experiment, MDA-MB-435 cells were treated with an alternating electric field at 150 kHz with a field strength of 1.62 V/cm for 24 hours, at an ambient temperature of 18° C. and a dish temperature of 37° C. (The dish temperature in this and other examples is higher than the ambient temperature due to heating caused by the alternating electric fields.) After the first 23.75 hours, 7-AAD was added to the culture and incubated for 15 minutes during which time the alternating electric fields was continued (to complete the 24 hour period). After this 15 minute period, alternating electric field application was terminated and the cells were incubated at room temperature for an additional 15 minutes.
In a variation of this experiment, MDA-MB-435 human melanoma cell line cells were treated with an alternating electric field at 150 kHz with a field strength of 1.62V/cm for 24 hours, at an ambient temperature of 18° C. and a dish temperature of 37° C. After this 24 hour period, the alternating electric fields were turned off for 15 minutes, after which the 7-AAD was added. After waiting an additional 15 minutes, the percentage of cells with increased accumulation of the fluorescent 7-AAD was determined using flow cytometry.

U87-MG/GFP-Luc cells = assay: Drug sensitivity / synergy with TTFields; type: cell-based, human
GBM39 cells = assay: Drug sensitivity with TTFields; type: cell-based, human; conditions: TTFields for 3 days vs no TTFields
U87-MG/eGFP-fLuc cells [6] = assay: Annexin-V-APC binding (apoptosis positive control); type: cell-based, human; conditions: 21 μM, TTFields-unexposed samples
Protocol: Initially, the impact of TTFields on the binding of Annexin-V-APC to the membrane of U87-MG/eGFP-fLuc cells was measured. Annexin-V-APC binding is a signature of early apoptosis which is characterized by ruffling of the membrane.

GBM39/Luc cells = assay: Drug sensitivity / synergy with TTFields; type: cell-based, human
human glioblastoma cells = assay: Growth inhibition by TTFields plus Withaferin A; type: cell-based
[7] = system: MDA-MB-435 cells, wild type; assay: Intracellular accumulation of doxorubicin; type: cell-based, human; conditions: 10 μM, one hour; 150 kHz, 1.62 V/cm fields
[8] = system: MDA-MB-435 cells, doxorubicin resistant; assay: Intracellular accumulation of doxorubicin; type: cell-based, human; conditions: 10 μM, one hour; 150 kHz, 1.62 V/cm fields
MDA-MB-235 cells = assay: Drug sensitivity / synergy with TTFields; type: cell-based
MES-SA cells = assay: Intracellular accumulation of doxorubicin; type: cell-based; conditions: 10 μM, one hour; 150 kHz, 1.62 V/cm RMS, 24 hours
Protocol: FIG. 26C depicts the results of another experiment performed to determine how 150 kHz alternating electric fields affect the permeability of the cell membranes of MES-SA cells to doxorubicin (543.52 g/mol). In this experiment, MES-SA cells were treated with an alternating electric field at 150 kHz with a field strength of 1.62 V/cm RMS for 24 hours. After the first 23 hours, doxorubicin at a concentration of 10 μM was added and incubated for one hour during which time the alternating electric fields was continued (to complete the 24 hour period). The intracellular accumulation of doxorubicin was then measured.

[9] = system: MCF-7 cells, mitoxantrone resistant; assay: Intracellular accumulation of mitoxantrone; type: cell-based, human; conditions: 2 μM, one hour; 150 kHz, 1.62 V/cm fields
Protocol: (§1) FIG. 22C depicts the results of a similar experiment using MCF-7 human breast adenocarcinoma cell line cells and mitoxantrone (444.481 g/mol). In this experiment, both wild type and mitoxantrone resistant variants of MCF-7 cells were treated with an alternating electric field at 150 kHz with a field strength of 1.62 V/cm for 23 hours. After this 23 hour period, mitoxantrone at a concentration of 2 μM was added and incubated for one hour, during which time the alternating electric fields was continued. The intracellular accumulation of mitoxantrone was then measured. The intracellular accumulation of mitoxantrone increased for both the wild type cells (compare bar 1 to bar 3) and the mitoxantrone resistant cells (compare bar 2 to bar 4).

MCF-7 cells, wild type = assay: Intracellular accumulation of mitoxantrone; type: cell-based, human; conditions: 2 μM, one hour; 150 kHz, 1.62 V/cm fields
Protocol: as §1

[10] = TTFields for 3 days vs no TTFields

With `NCC(=O)CCC(=O)O` [5-ALA, 5-aminolevulinic acid] the “uptake of 5-ALA (PpIX fluorescence)” value (U87-MG cells [1]; 6 h TTFields vs no TTFields, p=0.047) was “significantly increased uptake”, the “uptake of 5-ALA (PpIX fluorescence)” value (U87-MG cells [1]; 24 h TTFields vs no TTFields, p=0.011) was “increase was maintained” and the “ratio of PpIX fluorescence intensity, U87-MG cells over PCS-201 fibroblast cells” value ([2]; 24 h TTFields vs no TTFields, p=0.043) was “significantly increased”. The “rate of PpIX fluorescence intensity increase” value ([2]; TTFields-exposed vs unexposed co-cultures, 2, 6, 24 h) was “significantly augmented” and the “reversibility of increased uptake” value (U87-MG/eGFP-fLuc cells [3]) was “reversibly increase uptake”.

`Cc1c2oc3c(C)c(N)cc(C(=O)N[C@@H]4C(=O)N[C@H](C(C)C)C(=O)N5CCC[C@H]5C(=O)N(C)CC(=O)N(C)[C@@H](C(C)C)C(=O)O[C@@H]4C)c3nc-2c(C(=O)N[C@@H]2C(=O)N[C@H](C(C)C)C(=O)N3CCC[C@H]3C(=O)N(C)CC(=O)N(C)[C@@H](C(C)C)C(=O)O[C@@H]2C)c(N)c1=O` [7-AAD, 7-Aminoactinomycin D] was tested, and the “accumulation of 7-AAD” value (U87-MG cells [4]) was “significant increase in accumulation”, the “percentage of cells with increased accumulation of 7-AAD” value ([5]; 150 kHz, 1.62V/cm, 24 h, 7-AAD added 15 minutes after fields turned off) was roughly 20% and the “percentage of cells with increased accumulation of 7-AAD” value ([5]; 150 kHz, 1.62 V/cm, 24 h, 7-AAD added for last 15 minutes of field) was roughly 66%. The “percentage of cells with increased accumulation of 7-AAD” value ([5]; control, alternating electric fields not applied) was “less than 5%”.

`O=NN(CCCl)C(=O)NC1CCCCC1` [Lomustine] was tested, and the “sensitivity of cells to drug” value (U87-MG/GFP-Luc cells; [10]) was “improves the sensitivity”, the “sensitivity of cells to drug” value (GBM39 cells) was “improves the sensitivity” and the “sensitivity of cells to drug” value (pcGBM2/GFP-Luc cells; [10]) was “improves the sensitivity”.

`CC1=C(CO)C(=O)O[C@@H]([C@@H](C)[C@H]2CC[C@H]3[C@@H]4C[C@H]5O[C@]56[C@@H](O)C=CC(=O)[C@]6(C)[C@H]4CC[C@]23C)C1` [Withaferin A] was tested, and the “Annexin-V-APC binding visualized via fluorescence microscopy” value (U87-MG/eGFP-fLuc cells [6]) was “could be visualized”, the “synergy of TTFields plus drug” value (U87-MG/GFP-Luc cells) was “synergy was found” and the “synergy of TTFields plus drug” value (GBM39/Luc cells) was “synergy was found”. For the same compound, the “growth of human glioblastoma cells, TTFields in conjunction with compound” value (human glioblastoma cells) was “synergistically inhibited the growth” and the “synergy of TTFields plus drug” value (pcGBM2/GFP-Luc cells) was “synergy was found”.

In the case of `COc1cccc2c1C(=O)c1c(O)c3c(c(O)c1C2=O)C[C@@](O)(C(=O)CO)C[C@@H]3O[C@H]1C[C@H](N)[C@H](O)[C@H](C)O1` [doxorubicin], the “intracellular accumulation of doxorubicin” value [7] is reported as “increased”, the “intracellular accumulation of doxorubicin” value [8] is reported as “increased” and the “synergy of TTFields plus drug” value (MDA-MB-235 cells) is reported as “Evidence of synergy”. The “sensitivity of cells to drug” value (MDA-MB-235 cells; [10]) was “improves the sensitivity” and the “increase of intracellular accumulation of doxorubicin” value (MES-SA cells) was “more than 2 ×”.

With `O=C1c2c(O)ccc(O)c2C(=O)c2c(NCCNCCO)ccc(NCCNCCO)c21` [mitoxantrone] the “intracellular accumulation of mitoxantrone” value [9] was “increased” and the “intracellular accumulation of mitoxantrone” value (MCF-7 cells, wild type) was “increased”.
